Experimental data: ChEMBL document CHEMBL1131961, “Protein kinase C modulators bearing dicarba-CLOSO-dodecaborane as a hydrophobic pharmacophore” (Bioorg Med Chem Lett, 1999)
pEC50, pKi: −log10 of the molar value.

Assays:
[1] = system: HL-60; assay: Inhibition of HL-60 monocyte cell proliferation; format: functional; conditions: Homo sapiens, read-out: ED50 (the source's name)
[2] = target: Protein kinase C delta type (Homo sapiens, UniProt Q05655); assay: Displacement of [3H]-PDBu from human recombinant Protein kinase C delta
Chain of Protein kinase C delta type (Q05655 whole entry): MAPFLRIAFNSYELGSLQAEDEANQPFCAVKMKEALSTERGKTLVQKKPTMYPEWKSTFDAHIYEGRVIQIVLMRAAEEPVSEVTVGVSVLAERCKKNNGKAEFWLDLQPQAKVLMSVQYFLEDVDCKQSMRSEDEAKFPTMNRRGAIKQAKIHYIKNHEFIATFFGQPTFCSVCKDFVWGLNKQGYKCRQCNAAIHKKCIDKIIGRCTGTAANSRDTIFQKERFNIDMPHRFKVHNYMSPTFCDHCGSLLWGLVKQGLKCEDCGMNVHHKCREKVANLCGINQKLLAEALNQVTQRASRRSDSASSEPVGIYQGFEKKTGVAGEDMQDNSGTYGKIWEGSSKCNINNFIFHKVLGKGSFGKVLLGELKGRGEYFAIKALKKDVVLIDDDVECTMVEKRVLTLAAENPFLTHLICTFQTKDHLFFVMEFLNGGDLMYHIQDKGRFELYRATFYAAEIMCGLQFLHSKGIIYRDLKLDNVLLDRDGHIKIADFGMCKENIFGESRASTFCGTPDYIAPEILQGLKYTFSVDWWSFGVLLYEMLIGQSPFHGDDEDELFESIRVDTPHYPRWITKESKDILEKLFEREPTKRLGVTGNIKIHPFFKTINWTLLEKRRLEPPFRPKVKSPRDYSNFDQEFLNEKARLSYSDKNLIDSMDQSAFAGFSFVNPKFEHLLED

Structure (SMILES): CCCCCCCCCCc1ccc2c(c1)N(C)[C@@H](C(C)C)C(=O)N[C@H](CO)C2
- pEC50 [1]: 8.30
- pKi [2]: 8.74
